Source: patent publication US11453667B2, “Pyridone-pyrimidine derivative acting as KRASG12C mutein inhibitor” (MEDSHINE DISCOVERY INC., priority 2018, dated 2022)

Experiments:
Assay type in all cases: cell-based
Conditions in all cases: 5 days culture
[1] = system: NCI-H358 human non-small cell lung cancer cells with KRAS G12C mutation; assay: Cell experiment: anti-proliferative activity, CellTiter-Glo, NCI-H358
Procedure: (§1) This experiment is intended to verify that the compounds of the present invention have an inhibitory effect on the proliferation of NCI-H358 human non-small cell lung cancer cells with KRAS G12C mutation, MIA PaCa2 human pancreatic cancer cells with KRAS G12C mutation and wild-type A375 human malignant melanoma cells.
(§2) 40 μl of phosphate buffer was added to the peripheral wells of three 384-well microplates respectively, and 40 μl of cell suspension to be tested was added to the other wells of each plate respectively (plate 1: NCI-H358 cell suspension containing 500 NCI-H358 cells; plate 2: MIAPaCa2 cell suspension containing 300 MIAPaCa2 cells; plate 3: A375 cell suspension containing 300 A375 cells). The three cell plates were then placed in a carbon dioxide incubator and incubated overnight. Echo was used to perform a 3-fold gradient dilution of the compounds to be tested, and each compound was diluted with 10 concentration gradients (diluted from 50 μM to 0.003 μM), 100 nl of which was respectively added to the corresponding wells of the cell plates; after dosing, 40 μL of phosphate buffer was added to each well of rows A and P and columns 1 and 24, and then the cell plates were put back to the carbon dioxide incubator for culturing for 5 days. 20 μl of Promega CellTiter-Glo reagent per well was added to the cell plates, which was shaken at room temperature for 10 minutes in the dark to stabilize the luminescence signal. A PerkinElmer Envision multi-label analyzer was used for reading.
(§3) Data analysis: IC50 results were analyzed by GraphPad Prism 5.0 software […].

[2] = system: wild-type A375 human malignant melanoma cells; assay: Cell experiment: anti-proliferative activity, CellTiter-Glo, A375
Procedure: as §1, §2, §3

[3] = system: MIA PaCa2 human pancreatic cancer cells with KRAS G12C mutation; assay: Cell experiment: anti-proliferative activity, CellTiter-Glo, MIA PaCa2
Procedure: as §1, §2, §3

[4] = Homo sapiens, MIA PaCa-2, 120 h

Compound	IC50 ([2]; Homo sapiens, A-375, 120 h) [µM]	IC50 ([1]; Homo sapiens, NCI-H358, 120 h) [µM]	further results
C=CC(=O)N1CCN(c2nc(N3CC(N(CC)CC)C3)nc3c(=O)n(-c4c(N)c(Cl)cc(Cl)c4F)c(C(F)(F)F)cc23)CC1 (atropisomer, axis not shown) [Example 44]	9.02	–	IC50 [1]: 3.67 µM; IC50 [3]: 2.97 µM
C=CC(=O)N1CCN(c2nc(N3CC(N(CC)CC)C3)nc3c(=O)n(-c4c(N)c(Cl)cc(Cl)c4F)c(C(F)(F)F)cc23)CC1 (atropisomer, axis not shown) [Example 45]	–	–	IC50 [1]: 0.01 µM; IC50 [2]: 6.24 µM; IC50 [3]: 0.01 µM
C=CC(=O)N1CCN(c2ncnc3c(=O)n(-c4c(N)c(Cl)cc(Cl)c4F)c(C(F)(F)F)cc23)[C@H](C)C1 (atropisomer, axis not shown) [Example 51]	8.82	–	IC50 [1]: 2.04 µM
C=CC(=O)N1CCN(c2ncnc3c(=O)n(-c4c(N)c(Cl)cc(Cl)c4F)c(C(F)(F)F)cc23)[C@@H](C)C1 (atropisomer, axis not shown) [Example 53]	8.91	–	IC50 [1]: 2.27 µM
C=CC(=O)N1CCN(c2ncnc3c(=O)n(-c4c(F)cccc4OC)c(C(F)(F)F)cc23)CC1 [Example 1]	17.8	5.3	–
C=CC(=O)N1CCN(c2nc(OC3CCN(C)CC3)nc3c(=O)n(-c4c(O)cccc4F)c(C(F)(F)F)cc23)CC1 [Example 12]	9.89	14.2	–
C=CC(=O)N1CCN(c2nc(Oc3cnn(C)c3)nc3c(=O)n(-c4c(O)cccc4F)c(C(F)(F)F)cc23)CC1 [Example 15]	> 50	13.9	–
C=CC(=O)N1CCN(c2ncnc3c(=O)n(-c4c(F)cccc4OC(=O)N(C)C)c(C(F)(F)F)cc23)CC1 [Example 22]	24.4	–	IC50 ([1]; Homo sapiens, 120 h): 5.12 µM
C=CC(=O)N1CCN(c2ncnc3c(=O)n(-c4c(C)cccc4O)c(C(F)(F)F)cc23)CC1 [Example 25]	–	–	IC50 [3, 4]: 15.3 µM
C=CC(=O)N1CCN(c2nc(N3CC(N(CC)CC)C3)nc3c(=O)n(-c4c(C)ccc(N)c4C)c(C(F)(F)F)cc23)CC1 [Example 35]	–	–	IC50 [3]: 12 µM
C=CC(=O)N1CCN(c2ncnc3c(=O)n(-c4c(N)c(Cl)cc(Cl)c4F)c(C(F)(F)F)cc23)[C@H](C)C1 [Example 52]	–	–	IC50 [1]: 0.06 µM; IC50 [2]: 7.39 µM
C=CC(=O)N1CCN(c2ncnc3c(=O)n(-c4c(N)c(Cl)cc(Cl)c4F)c(C(F)(F)F)cc23)[C@@H](C)C1 [Example 54]	–	–	IC50 [1]: 0.29 µM; IC50 [2]: 6.66 µM

Further lines, with some results ahead:

IC50 ([2]; Homo sapiens, A-375, 120 h) [µM]	IC50 ([1]; Homo sapiens, NCI-H358, 120 h) [µM]	Compound	further results
39.9	14.6	C=CC(=O)N1CCN(c2nc(N3CCOCC3)nc3c(=O)n(-c4c(O)cccc4F)c(C(F)(F)F)cc23)CC1 [Example 6]	IC50 [3, 4]: 12.7 µM
42.2	24	C=CC(=O)N1CCN(c2nc(OC)nc3c(=O)n(-c4c(O)cccc4F)c(C(F)(F)F)cc23)CC1 [Example 11]	–
2.86	7.18	C=CC(=O)N1CC2CN(c3ncnc4c(=O)n(-c5c(O)cccc5F)c(C(F)(F)F)cc34)CC21 (centres unmarked) [Example 18]	–
32.6	13.3	C=CC(=O)N1CCN(c2ncnc3c(=O)n(-c4c(C)ccc(N)c4C)c(C(F)(F)F)cc23)CC1 [Example 26]	–
≥ 50	20.8	C=CC(=O)N1CCN(c2ncnc3c(=O)n(-c4c(C)ccc5c4cnn5C(C)=O)c(C(F)(F)F)cc23)CC1 [Example 27]	–
36.2	9.93	C=CC(=O)N1CCN(c2ncnc3c(=O)n(-c4c(C)ccc5[nH]ncc45)c(C(F)(F)F)cc23)CC1 [Example 28]	–
33.3	1.64	C=CC(=O)N1CCN(c2ncnc3c(=O)n(-c4c(N)cccc4F)c(C(F)(F)F)cc23)CC1 [Example 31]	IC50 [3, 4]: 1.25 µM
39.6	15.8	C=CC(=O)N1CCN(c2nc(N3CC(N(CC)CC)C3)nc3c(=O)n(-c4c(N)cccc4F)c(C(F)(F)F)cc23)CC1 [Example 33]	–
≥ 50	4.26	C=CC(=O)N1CCN(c2ncnc3c(=O)n(-c4c(O)ccc5ccccc45)c(C(F)(F)F)cc23)CC1 [Trifluoroacetate of example 55]	–
